Active and inactive are the calls of the source. Cut-off read from the data, not from the text of the source, for most assays here: actives have a measured AC50 and inactives only a lower limit.

From ChEMBL document CHEMBL1201862, “PubChem BioAssay data set” (2004) come the findings set out here.

Test [1] deals with Metabotropic glutamate receptor 5 (Rattus norvegicus, UniProt P31424). Description: Identification of a glycine sulfonamide based non-MPEP site positive allosteric potentiator (PAM) of mGlu5 (calcium_assay). Format: functional.
The target in test [2] is Endoplasmic reticulum aminopeptidase 1 (Homo sapiens, UniProt Q9NZ08). Kind of test: inhibition of human ERAP1 enzyme activity – biochemical, cherry-pick, set 2, plate reader, dose response (AID 743314).
The target in test [3] is T1, Aminopeptidase N (Plasmodium falciparum FcB1/Columbia, UniProt O96935).
T1 sequence (O96935 whole entry): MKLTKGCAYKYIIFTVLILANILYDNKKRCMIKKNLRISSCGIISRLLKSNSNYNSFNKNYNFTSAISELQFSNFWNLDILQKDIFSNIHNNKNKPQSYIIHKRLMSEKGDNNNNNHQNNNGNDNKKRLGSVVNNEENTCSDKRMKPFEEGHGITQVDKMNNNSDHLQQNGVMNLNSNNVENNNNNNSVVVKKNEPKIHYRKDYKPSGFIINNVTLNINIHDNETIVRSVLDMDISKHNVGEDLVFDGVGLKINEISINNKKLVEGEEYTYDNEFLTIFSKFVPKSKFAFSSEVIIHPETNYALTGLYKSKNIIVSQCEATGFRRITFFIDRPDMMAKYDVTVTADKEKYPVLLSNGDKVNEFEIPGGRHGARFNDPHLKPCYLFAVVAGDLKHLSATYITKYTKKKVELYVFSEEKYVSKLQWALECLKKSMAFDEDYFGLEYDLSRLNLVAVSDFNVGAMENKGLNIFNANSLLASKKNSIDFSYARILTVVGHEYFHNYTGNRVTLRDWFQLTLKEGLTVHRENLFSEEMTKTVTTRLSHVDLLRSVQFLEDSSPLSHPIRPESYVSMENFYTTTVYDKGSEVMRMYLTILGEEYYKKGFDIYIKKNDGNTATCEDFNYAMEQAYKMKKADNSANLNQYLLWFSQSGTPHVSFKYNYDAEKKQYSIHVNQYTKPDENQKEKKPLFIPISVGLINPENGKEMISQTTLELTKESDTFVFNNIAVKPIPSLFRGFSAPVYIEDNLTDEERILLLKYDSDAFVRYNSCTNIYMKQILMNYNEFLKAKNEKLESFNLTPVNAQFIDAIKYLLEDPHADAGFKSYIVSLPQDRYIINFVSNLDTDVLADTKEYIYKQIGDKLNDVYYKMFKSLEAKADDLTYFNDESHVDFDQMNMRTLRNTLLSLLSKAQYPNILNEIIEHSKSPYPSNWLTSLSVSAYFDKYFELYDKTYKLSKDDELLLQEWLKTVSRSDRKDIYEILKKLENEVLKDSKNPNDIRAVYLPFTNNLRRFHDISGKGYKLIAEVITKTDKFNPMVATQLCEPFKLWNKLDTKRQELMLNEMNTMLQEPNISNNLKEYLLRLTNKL
Kind of test: malaria alanyl aminopeptidase activity blockers – biochemical, fluorogenic H-Leu-NHMec substrate, 1536-well (AID 1445). On the set-up: species or system Plasmodium falciparum 3D7, 3D7.

Test [4] in a line: COV434 cell viability loss – plate reader, dry powder, SA7, cytotoxicity control for PAX8 inhibitor project, dose response (AID 743145). Format: functional, cell-based.
Test [5] is described as follows: OV-90 cell viability loss – plate reader, dry powder, SA8, PAX8 inhibitor project, dose response (AID 743149). The test is classed as functional, cell-based.
The nature of test [6]: OVCAR8 cell viability loss – plate reader, dry powder samples, PAX8 project, dose response (AID 743197). As to conditions: OVCAR-8. Format: functional, cell-based.
A short description of test [7]: PAX8-dependent cell viability loss – plate reader, dry powder, dose response (AID 743049). Format: functional, cell-based.
Test [8] in a line: PAX5 cellular inhibition readout – cell-based, plate reader, dry powder samples, selectivity assay for PAX8 inhibitor project, dose response (AID 743047).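 Note: HEK293 cells carrying a Pax5 driven CD19 promoter luciferase reporter; potency of inhibitors that lower reporter luminescence.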 The test is classed as functional.
Test [9] can be described thus: COV362 cell viability loss – plate reader, dry powder, SA12, cytotoxicity control for PAX8 inhibitor project, dose response (AID 743144). Format: functional, cell-based.
The nature of test [10]: inhibitors acting on PAX2 in cells – cell-based, plate reader, dry powder samples, selectivity assay for PAX8 inhibitor project, dose response (AID 743048).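 Note: HEK293 cells carrying a WT1 promoter luciferase reporter driven by expressed Pax2; potency is for inhibition of Pax2 driven reporter signal.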 The test is classed as functional.
The target of test [11] is Paired box protein Pax-8 (Homo sapiens, UniProt Q06710). Kind of test: PAX8 transcriptional activity inhibition in RMG-I – RMG-I cells, luciferase, cherry-pick, dose response (AID 687027).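 Note: luciferase reporter driven by Pax8 target thyroperoxidase promoter measured by SteadyGlo luminescence.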 Format: functional, cell-based.
Test [12] has as its target Delta-type opioid receptor (Homo sapiens, UniProt P41143). Kind of test: Late-stage results from the probe development effort to identify antagonists of OPRK1: fluorescence-based cell-based dose response OPRD1 counterscreen. Format: functional. On the technique in general: The purpose of a counterscreen is to sort out artefacts and off-target activity.
The target in test [13] is Mu-type opioid receptor (Homo sapiens, UniProt P35372). Kind of test: Late-stage results from the probe development effort to identify antagonists of OPRK1: luminescence-based cell-based dose response OPRM1 counterscreen. Format: functional.
The nature of test [14]: loss of viability in HepG2 cells – cell-based, CellTiter-Glo, cherry-picked, cytotoxicity control for Shn3 inhibitor project, dose response (AID 624134). The test is classed as functional.
The nature of test [15]: non-specific 3'UTR reporter inhibition in Clone20-Shn3RL – cell-based, Renilla luciferase, cherry-picked, counter-screen for Shn3 inhibitor project, dose response (AID 624133). Format: functional.
The nature of test [16]: Shn3 3'UTR reporter signal decrease – cell-based, Clone20 osteoblasts, firefly luciferase, cherry-pick, set 2, Schnurri-3 inhibitor project, dose response (AID 720490).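 Note: actives lower the luminescence signal as inhibitors.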 Format: functional.
The nature of test [17]: reduction of Shn3 3'UTR-driven luciferase in osteoblasts – cell-based, Clone20 osteoblasts, firefly luciferase, cherry-picked, dose response (AID 624132).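 Note: firefly luciferase luminescence from reporter carrying the Shn3 3'UTR in osteoblasts.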 Format: functional.

Sequence of Metabotropic glutamate receptor 5 (P31424 whole entry): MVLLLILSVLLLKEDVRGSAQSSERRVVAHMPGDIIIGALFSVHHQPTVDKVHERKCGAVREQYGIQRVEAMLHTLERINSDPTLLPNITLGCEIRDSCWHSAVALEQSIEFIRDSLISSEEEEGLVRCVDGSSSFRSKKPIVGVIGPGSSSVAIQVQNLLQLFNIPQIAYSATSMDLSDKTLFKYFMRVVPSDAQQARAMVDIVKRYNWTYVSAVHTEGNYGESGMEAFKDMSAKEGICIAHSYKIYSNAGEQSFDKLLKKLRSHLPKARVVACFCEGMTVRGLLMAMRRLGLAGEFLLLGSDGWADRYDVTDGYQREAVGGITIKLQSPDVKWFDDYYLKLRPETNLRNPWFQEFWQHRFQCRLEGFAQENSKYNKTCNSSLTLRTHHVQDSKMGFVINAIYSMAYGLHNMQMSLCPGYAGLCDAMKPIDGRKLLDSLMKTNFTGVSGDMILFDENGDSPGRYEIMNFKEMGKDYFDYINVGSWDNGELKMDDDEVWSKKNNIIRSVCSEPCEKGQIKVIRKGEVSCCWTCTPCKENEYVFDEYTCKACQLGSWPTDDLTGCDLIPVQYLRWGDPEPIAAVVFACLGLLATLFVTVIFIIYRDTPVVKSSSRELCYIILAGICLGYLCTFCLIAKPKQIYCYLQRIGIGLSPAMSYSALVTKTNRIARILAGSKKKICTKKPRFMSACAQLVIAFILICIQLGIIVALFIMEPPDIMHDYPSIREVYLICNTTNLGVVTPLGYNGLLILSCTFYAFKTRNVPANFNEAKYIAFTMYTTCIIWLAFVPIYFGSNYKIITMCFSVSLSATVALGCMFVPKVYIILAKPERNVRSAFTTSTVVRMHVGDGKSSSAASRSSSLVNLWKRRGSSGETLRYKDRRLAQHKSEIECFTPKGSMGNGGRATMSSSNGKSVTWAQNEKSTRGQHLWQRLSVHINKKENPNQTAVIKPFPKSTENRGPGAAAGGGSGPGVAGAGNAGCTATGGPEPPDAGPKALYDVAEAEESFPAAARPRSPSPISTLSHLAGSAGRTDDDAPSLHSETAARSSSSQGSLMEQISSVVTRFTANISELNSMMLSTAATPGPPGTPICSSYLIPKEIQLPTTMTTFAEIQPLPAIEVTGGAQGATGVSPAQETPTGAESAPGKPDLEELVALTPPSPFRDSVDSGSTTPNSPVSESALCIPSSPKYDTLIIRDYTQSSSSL
Sequence of Endoplasmic reticulum aminopeptidase 1 (Q9NZ08 whole entry): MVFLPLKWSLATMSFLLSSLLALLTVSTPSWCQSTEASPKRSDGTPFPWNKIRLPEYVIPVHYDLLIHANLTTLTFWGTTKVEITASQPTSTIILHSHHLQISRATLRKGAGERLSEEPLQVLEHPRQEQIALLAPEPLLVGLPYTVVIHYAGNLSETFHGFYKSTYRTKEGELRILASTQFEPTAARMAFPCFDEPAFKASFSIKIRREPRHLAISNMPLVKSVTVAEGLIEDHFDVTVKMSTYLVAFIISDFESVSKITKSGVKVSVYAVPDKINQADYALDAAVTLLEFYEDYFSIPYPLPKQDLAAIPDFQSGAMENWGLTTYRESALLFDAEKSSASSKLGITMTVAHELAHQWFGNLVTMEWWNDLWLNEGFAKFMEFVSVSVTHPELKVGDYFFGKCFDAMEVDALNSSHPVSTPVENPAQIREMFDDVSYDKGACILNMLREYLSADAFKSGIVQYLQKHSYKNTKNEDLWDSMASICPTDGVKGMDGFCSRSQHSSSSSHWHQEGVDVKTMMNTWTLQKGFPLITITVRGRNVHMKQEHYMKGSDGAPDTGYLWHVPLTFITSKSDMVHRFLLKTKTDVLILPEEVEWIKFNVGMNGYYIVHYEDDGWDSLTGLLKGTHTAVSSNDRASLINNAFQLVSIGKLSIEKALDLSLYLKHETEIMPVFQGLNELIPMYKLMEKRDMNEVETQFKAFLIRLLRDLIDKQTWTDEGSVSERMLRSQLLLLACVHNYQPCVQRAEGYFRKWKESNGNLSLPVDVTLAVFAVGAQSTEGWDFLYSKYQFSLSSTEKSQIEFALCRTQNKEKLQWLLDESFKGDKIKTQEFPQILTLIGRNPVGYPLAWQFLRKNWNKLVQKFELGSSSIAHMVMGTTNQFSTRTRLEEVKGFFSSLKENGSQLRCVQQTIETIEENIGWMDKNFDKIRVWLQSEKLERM
Sequence of Paired box protein Pax-8 (Q06710 whole entry): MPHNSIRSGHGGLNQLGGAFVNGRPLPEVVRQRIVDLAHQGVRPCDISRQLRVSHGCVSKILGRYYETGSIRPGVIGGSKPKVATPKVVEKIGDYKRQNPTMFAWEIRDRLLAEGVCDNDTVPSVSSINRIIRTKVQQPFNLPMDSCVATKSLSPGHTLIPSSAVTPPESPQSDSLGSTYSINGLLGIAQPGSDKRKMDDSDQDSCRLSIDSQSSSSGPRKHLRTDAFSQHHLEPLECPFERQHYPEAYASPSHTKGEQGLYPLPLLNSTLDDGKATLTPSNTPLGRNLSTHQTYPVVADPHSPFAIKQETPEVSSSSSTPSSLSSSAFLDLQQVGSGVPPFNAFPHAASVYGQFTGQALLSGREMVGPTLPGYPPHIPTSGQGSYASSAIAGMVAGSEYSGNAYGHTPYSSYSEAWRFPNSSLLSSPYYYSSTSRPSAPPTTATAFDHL
Sequence of Mu-type opioid receptor (P35372 whole entry): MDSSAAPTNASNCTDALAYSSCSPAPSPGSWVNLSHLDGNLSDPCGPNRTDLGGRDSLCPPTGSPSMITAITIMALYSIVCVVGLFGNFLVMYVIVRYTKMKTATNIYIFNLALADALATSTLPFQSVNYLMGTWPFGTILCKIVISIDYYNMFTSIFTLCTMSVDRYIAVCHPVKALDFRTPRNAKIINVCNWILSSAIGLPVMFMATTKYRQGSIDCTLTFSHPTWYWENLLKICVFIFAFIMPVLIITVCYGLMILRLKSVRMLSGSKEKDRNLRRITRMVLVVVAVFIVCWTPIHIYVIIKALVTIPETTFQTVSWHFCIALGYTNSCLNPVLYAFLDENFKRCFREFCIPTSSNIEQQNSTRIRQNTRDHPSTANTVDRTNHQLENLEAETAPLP
Sequence of Delta-type opioid receptor (P41143 whole entry): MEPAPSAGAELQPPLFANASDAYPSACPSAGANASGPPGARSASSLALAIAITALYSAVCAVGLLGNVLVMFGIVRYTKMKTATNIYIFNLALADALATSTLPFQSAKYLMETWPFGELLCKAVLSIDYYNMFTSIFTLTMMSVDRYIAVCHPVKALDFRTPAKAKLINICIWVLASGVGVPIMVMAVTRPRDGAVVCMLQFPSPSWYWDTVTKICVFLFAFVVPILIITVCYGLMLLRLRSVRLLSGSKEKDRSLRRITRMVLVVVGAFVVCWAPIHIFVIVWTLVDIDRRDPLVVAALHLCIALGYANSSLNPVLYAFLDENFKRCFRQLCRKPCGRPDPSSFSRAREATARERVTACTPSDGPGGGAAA

Turning to `CS(=O)(=O)N1c2ccccc2CCC1C(=O)Nc1ccccn1` (configuration not stated), in test [1], the EC50 – broadly, the concentration giving half of the maximal effect – turned out to be 0.944 µM.
For the compound `CCc1c(C)c2cc(Cl)c(O)c(CN(CC)CC)c2oc1=O`, the AC50 (usually the concentration at which the activity in the assay is half-maximal) in [2] is 6.85 µM (active). Besides, the IC50 – broadly, the midpoint of a concentration-inhibition curve – in test [3] is 34.6 µM (active).
In the case of `CCCC#Cc1ccc([C@@H]2[C@@H](C#N)N(C(=O)C3CCCCC3)[C@H]2CO)cc1`, the AC50 in test [4] was 34.5 µM (active); in test [5], 36 µM (active); in [6], 51 µM (active); in test [7], 31 µM (active); in [8] it was 18.3 µM (active); in [9], 41.8 µM (active). Further, the AC50 was 14.1 µM (active) in test [10] and 6.02 µM (active) in test [11].
`COC(=O)c1cc(Br)cnc1N1CCC(NC2CCC(C)CC2)CC1` (configuration not stated): the values for the IC50 in test [12] and in test [13] were 18 µM (inactive) and 8.6 µM (active), respectively.
Take `CCOC(=O)N1CCN(c2ccc(S(=O)(=O)N(Cc3ccccc3)Cc3ccccc3)cn2)CC1`: the AC50 in test [14] is 45 µM (active); in test [15], 34.3 µM (active); in test [16], 2.09 µM (active); in test [17], 2.59 µM (active).
